Experiments:
Experiment in all cases: KINOMEscan competition binding
Conditions in all cases: compound 10.0 µM
[1] = target: KDR (human) (UniProt P35968)
[2] = target: PAK3 (human) (UniProt O75914)
[3] = target: CDK17 (human) (UniProt Q00537)
[4] = target: PIP4K2B (human) (UniProt P78356)
[5] = target: MELK (human) (UniProt Q14680)
[6] = target: TAOK1 (human) (UniProt Q7L7X3)
[7] = target: DMPK (human) (UniProt Q09013)
[8] = target: NTRK2 (human) (UniProt Q16620)
[9] = target: BRSK2 (human) (UniProt Q8IWQ3)
[10] = target: VRK2 (human) (UniProt Q86Y07)
[11] = target: CSNK1G1 (human) (UniProt Q9HCP0)
[12] = target: RPS6KA2 KD1 (human) (UniProt Q15349)
[13] = target: EPHA5 (human) (UniProt P54756)
[14] = target: PTK6 (human) (UniProt Q13882)
[15] = target: STK4 (human) (UniProt Q13043)
[16] = target: NEK2 (human) (UniProt P51955)
[17] = target: ANKK1 (human) (UniProt Q8NFD2)
[18] = target: CDC42BPG (human) (UniProt Q6DT37)
[19] = target: RPS6KA4 KD1 (human) (UniProt O75676)
[20] = target: CDK4 CCND3 (human) (UniProt P11802+P30281)
[21] = target: CAMK2G (human) (UniProt Q13555)
[22] = target: AKT2 (human) (UniProt P31751)
[23] = target: NEK7 (human) (UniProt Q8TDX7)
[24] = target: NEK9 (human) (UniProt Q8TD19)
[25] = target: PIK3C2B (human) (UniProt O00750)
[26] = target: PIK3CA (human) (UniProt P42336)
[27] = target: ITK (human) (UniProt Q08881)
[28] = target: RPS6KA5 KD1 (human) (UniProt O75582)
[29] = target: LATS1 (human) (UniProt O95835)
[30] = target: CDKL1 (human) (UniProt Q00532)
[31] = target: MAP3K10 (human) (UniProt Q02779)
[32] = target: PLK3 (human) (UniProt Q9H4B4)
[33] = target: RPS6KA3 KD1 (human) (UniProt P51812)
[34] = target: DYRK1A (human) (UniProt Q13627)
[35] = target: RIOK2 (human) (UniProt Q9BVS4)
[36] = target: PRKCQ (human) (UniProt Q04759)
[37] = target: DAPK1 (human) (UniProt P53355)
[38] = target: MAP4K4 (human) (UniProt O95819)
[39] = target: CAMKK2 (human) (UniProt Q96RR4)
[40] = target: CASK (human) (UniProt O14936)

Chain of CAMK2G (human) (Q13555 whole entry, looked up): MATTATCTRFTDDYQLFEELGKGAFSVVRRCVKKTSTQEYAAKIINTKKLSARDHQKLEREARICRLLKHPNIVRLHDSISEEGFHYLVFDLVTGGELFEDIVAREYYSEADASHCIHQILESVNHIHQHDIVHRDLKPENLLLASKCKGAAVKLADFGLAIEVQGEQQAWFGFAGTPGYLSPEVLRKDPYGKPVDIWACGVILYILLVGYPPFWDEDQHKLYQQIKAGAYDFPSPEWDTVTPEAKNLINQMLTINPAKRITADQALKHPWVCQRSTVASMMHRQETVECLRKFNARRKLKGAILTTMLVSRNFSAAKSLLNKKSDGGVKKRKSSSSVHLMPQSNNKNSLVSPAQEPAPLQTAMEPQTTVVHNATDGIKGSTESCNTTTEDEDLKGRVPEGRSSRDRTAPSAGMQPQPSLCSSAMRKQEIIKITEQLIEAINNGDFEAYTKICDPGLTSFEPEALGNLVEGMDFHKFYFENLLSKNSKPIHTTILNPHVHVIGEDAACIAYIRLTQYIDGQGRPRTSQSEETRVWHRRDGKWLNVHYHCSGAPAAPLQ
Chain of DAPK1 (human) (P53355 whole entry, looked up): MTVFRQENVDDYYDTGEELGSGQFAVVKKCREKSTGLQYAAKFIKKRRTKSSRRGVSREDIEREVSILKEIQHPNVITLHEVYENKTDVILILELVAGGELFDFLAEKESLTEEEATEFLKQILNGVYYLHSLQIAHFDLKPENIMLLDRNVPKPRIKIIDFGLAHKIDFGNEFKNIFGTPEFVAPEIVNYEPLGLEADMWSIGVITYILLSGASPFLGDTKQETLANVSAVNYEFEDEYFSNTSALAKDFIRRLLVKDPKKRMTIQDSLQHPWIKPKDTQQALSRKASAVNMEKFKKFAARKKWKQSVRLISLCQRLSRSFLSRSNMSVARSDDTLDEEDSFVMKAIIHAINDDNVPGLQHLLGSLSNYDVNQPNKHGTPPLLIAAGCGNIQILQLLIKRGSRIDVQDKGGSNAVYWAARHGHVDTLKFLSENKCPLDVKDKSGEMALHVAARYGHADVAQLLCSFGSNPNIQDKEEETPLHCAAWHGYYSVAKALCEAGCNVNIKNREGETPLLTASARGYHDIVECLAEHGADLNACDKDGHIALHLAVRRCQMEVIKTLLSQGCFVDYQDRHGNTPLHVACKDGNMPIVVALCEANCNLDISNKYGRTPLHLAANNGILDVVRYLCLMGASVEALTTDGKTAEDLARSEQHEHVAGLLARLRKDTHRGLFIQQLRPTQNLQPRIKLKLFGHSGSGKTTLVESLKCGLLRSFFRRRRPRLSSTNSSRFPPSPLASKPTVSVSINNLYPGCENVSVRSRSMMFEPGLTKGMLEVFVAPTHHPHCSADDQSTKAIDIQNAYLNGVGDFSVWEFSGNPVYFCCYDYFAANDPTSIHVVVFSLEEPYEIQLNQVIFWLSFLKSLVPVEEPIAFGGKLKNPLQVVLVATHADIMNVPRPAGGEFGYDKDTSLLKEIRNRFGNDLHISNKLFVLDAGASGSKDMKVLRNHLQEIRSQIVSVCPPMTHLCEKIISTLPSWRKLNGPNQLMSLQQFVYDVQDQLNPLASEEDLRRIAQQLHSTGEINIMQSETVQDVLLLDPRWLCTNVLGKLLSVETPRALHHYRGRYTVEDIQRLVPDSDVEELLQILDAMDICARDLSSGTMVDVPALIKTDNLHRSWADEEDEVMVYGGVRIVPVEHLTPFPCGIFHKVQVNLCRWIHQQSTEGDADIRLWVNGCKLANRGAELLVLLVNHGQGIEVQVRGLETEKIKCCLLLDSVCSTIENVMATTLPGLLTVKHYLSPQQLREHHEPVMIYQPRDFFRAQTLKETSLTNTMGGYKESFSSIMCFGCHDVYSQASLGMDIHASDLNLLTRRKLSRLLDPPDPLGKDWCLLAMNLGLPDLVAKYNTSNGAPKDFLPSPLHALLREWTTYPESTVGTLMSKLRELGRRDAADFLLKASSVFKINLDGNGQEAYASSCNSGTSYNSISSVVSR
Chain of CDK17 (human) (Q00537 whole entry, looked up): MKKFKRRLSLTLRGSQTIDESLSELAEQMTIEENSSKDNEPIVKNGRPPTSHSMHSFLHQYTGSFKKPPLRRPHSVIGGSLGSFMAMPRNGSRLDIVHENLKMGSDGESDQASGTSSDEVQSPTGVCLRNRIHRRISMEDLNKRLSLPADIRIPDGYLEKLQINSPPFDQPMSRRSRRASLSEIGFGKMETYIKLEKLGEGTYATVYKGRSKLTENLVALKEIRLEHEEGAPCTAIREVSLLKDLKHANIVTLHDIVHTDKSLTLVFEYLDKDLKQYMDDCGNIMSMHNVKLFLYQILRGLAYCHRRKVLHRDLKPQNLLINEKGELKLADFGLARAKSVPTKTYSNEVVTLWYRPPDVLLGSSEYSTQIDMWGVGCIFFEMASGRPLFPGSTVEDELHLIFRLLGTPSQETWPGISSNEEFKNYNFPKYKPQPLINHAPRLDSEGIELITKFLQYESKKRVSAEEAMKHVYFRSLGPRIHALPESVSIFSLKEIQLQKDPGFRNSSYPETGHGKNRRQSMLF
Chain of NEK7 (human) (Q8TDX7 whole entry, looked up): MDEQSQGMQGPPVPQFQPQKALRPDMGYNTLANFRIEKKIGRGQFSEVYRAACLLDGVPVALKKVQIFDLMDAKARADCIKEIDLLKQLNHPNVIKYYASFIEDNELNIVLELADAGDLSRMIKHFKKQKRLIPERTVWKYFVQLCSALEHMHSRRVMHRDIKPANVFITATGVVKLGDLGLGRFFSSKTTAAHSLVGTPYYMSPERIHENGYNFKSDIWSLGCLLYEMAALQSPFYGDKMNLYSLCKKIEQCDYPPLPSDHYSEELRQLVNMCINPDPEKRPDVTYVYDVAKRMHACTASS
Chain of ANKK1 (human) (Q8NFD2 whole entry, looked up): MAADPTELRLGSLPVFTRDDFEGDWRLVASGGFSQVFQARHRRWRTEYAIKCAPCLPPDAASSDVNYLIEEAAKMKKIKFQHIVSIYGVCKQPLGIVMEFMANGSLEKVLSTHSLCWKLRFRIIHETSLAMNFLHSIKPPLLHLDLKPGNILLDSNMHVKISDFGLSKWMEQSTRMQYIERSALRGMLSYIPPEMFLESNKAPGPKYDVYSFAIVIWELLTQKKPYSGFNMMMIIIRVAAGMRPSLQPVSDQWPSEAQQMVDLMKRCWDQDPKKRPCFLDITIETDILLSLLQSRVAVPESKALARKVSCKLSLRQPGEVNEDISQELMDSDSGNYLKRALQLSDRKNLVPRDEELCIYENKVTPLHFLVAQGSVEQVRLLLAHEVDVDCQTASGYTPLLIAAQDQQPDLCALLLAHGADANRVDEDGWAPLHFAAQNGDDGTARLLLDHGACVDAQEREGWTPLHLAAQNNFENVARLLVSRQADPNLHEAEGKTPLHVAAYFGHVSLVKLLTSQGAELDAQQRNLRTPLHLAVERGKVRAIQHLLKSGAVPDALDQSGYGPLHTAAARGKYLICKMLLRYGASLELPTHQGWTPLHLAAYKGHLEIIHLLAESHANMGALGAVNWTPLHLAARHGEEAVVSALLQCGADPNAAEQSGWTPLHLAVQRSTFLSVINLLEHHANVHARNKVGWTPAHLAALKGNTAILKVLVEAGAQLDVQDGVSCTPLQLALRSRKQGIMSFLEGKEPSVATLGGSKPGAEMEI
Chain of PTK6 (human) (Q13882 whole entry, looked up): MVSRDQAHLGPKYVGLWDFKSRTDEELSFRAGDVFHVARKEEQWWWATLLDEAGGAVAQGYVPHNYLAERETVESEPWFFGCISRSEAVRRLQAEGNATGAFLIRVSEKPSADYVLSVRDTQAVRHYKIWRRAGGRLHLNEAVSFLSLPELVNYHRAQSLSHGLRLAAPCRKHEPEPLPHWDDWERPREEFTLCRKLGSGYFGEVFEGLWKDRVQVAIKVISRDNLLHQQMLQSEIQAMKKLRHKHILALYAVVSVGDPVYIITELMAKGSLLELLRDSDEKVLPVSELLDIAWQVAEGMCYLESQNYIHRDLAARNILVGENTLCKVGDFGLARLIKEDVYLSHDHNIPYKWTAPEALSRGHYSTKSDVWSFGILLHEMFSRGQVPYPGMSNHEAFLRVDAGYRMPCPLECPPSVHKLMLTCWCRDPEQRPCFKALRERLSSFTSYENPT
Chain of CSNK1G1 (human) (Q9HCP0 whole entry, looked up): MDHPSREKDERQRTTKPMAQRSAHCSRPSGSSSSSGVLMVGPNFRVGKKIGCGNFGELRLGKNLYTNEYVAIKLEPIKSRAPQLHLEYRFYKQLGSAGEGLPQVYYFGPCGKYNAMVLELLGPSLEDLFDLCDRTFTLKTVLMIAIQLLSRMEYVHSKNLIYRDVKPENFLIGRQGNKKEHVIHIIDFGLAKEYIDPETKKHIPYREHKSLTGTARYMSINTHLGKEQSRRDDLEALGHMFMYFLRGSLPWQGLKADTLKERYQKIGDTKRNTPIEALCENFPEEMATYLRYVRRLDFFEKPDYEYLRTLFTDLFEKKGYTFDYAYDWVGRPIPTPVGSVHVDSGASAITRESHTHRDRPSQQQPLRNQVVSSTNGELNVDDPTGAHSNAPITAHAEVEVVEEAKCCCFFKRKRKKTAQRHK
Chain of PIP4K2B (human) (P78356 whole entry, looked up): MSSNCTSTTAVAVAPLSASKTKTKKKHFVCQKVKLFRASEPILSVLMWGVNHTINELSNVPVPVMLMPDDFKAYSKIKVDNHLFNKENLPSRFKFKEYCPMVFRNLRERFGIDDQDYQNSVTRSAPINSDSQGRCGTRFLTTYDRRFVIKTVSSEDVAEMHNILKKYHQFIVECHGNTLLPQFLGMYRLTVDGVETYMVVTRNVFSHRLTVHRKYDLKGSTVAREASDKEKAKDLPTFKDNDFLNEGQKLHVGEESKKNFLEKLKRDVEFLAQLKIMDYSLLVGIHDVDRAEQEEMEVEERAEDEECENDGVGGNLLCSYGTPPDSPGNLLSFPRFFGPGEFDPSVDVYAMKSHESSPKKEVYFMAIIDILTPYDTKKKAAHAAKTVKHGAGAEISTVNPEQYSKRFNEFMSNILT

Compound | kinase still bound, per cent of control [1] [%] | kinase still bound, per cent of control [2] [%] | kinase still bound, per cent of control [3] [%] | kinase still bound, per cent of control [4] [%] | kinase still bound, per cent of control [5] [%] | kinase still bound, per cent of control [6] [%] | kinase still bound, per cent of control [8] [%] | kinase still bound, per cent of control [9] [%] | kinase still bound, per cent of control [11] [%] | kinase still bound, per cent of control [12] [%] | kinase still bound, per cent of control [13] [%] | kinase still bound, per cent of control [14] [%] | kinase still bound, per cent of control [15] [%] | kinase still bound, per cent of control [16] [%] | kinase still bound, per cent of control [17] [%] | kinase still bound, per cent of control [18] [%] | kinase still bound, per cent of control [19] [%] | kinase still bound, per cent of control [21] [%] | kinase still bound, per cent of control [22] [%] | kinase still bound, per cent of control [23] [%] | further results
C[C@@H](Oc1cc(-c2cnn(C3CCNCC3)c2)cnc1N)c1c(Cl)ccc(F)c1Cl | 78 | 5.8 | 62 | 3.8 | 47 | 1.2 | 0.2 | 65 | 100 | 34 | 1.8 | 56 | 3.9 | 81 | 4.2 | 48 | 100 | 100 | 100 | 6.7 | kinase still bound, per cent of control [7]: 1.6%; kinase still bound, per cent of control [10]: 100%; kinase still bound, per cent of control [20]: 39%; kinase still bound, per cent of control [24]: 6.2%; kinase still bound, per cent of control [25]: 46%; kinase still bound, per cent of control [26]: 100%; kinase still bound, per cent of control [27]: 33%; kinase still bound, per cent of control [28]: 100%; kinase still bound, per cent of control [29]: 100%; kinase still bound, per cent of control [30]: 81%; kinase still bound, per cent of control [31]: 79%; kinase still bound, per cent of control [32]: 85%; kinase still bound, per cent of control [33]: 47%; kinase still bound, per cent of control [34]: 100%; kinase still bound, per cent of control [35]: 56%; kinase still bound, per cent of control [36]: 88%; kinase still bound, per cent of control [37]: 74%
CS(=O)(=O)N1CCN(Cc2cc3nc(-c4cccc5[nH]ncc45)nc(N4CCOCC4)c3s2)CC1 | 100 | 100 | 100 | 100 | 100 | 100 | 100 | 100 | 100 | 100 | 100 | 100 | 100 | 100 | 100 | 100 | 100 | 100 | 100 | 100 | kinase still bound, per cent of control [7]: 100%; kinase still bound, per cent of control [38]: 100%; kinase still bound, per cent of control [24]: 100%; kinase still bound, per cent of control [25]: 22%; kinase still bound, per cent of control [26]: 0.15%; kinase still bound, per cent of control [27]: 100%; kinase still bound, per cent of control [28]: 100%; kinase still bound, per cent of control [29]: 100%; kinase still bound, per cent of control [31]: 100%; kinase still bound, per cent of control [32]: 100%; kinase still bound, per cent of control [39]: 100%; kinase still bound, per cent of control [33]: 100%; kinase still bound, per cent of control [34]: 100%; kinase still bound, per cent of control [35]: 100%; kinase still bound, per cent of control [36]: 100%; kinase still bound, per cent of control [37]: 100%
COCC(=O)NC/C=C/c1ccc2ncnc(Nc3ccc(Oc4ccc(C)nc4)c(C)c3)c2c1 | 100 | 70 | 100 | 100 | 92 | 94 | 100 | 100 | 100 | 78 | 100 | 100 | 87 | 100 | 60 | 90 | 97 | 94 | 100 | 73 | kinase still bound, per cent of control [10]: 100%; kinase still bound, per cent of control [38]: 97%; kinase still bound, per cent of control [20]: 100%; kinase still bound, per cent of control [24]: 82%; kinase still bound, per cent of control [25]: 88%; kinase still bound, per cent of control [26]: 100%; kinase still bound, per cent of control [27]: 92%; kinase still bound, per cent of control [28]: 99%; kinase still bound, per cent of control [29]: 100%; kinase still bound, per cent of control [30]: 69%; kinase still bound, per cent of control [31]: 100%; kinase still bound, per cent of control [32]: 99%; kinase still bound, per cent of control [39]: 85%; kinase still bound, per cent of control [33]: 92%; kinase still bound, per cent of control [35]: 100%; kinase still bound, per cent of control [36]: 100%; kinase still bound, per cent of control [37]: 76%; kinase still bound, per cent of control [40]: 100%
